We go through five molecules from US20080096811A1, “[…] VPAC2 RECEPTOR PEPTIDE AGONISTS” (Eli Lilly and Company, published 2008).

Where two headings read alike, the source gives them in different places. Where a SMILES comes first, the peptide text is derived from it. Where no end group is shown, it is not given here. The star is where a group is joined. Hexanoyl = CCCCCC(=O)*

The term IC50 denotes the concentration needed to halve the response being measured. Read a low IC50 as inhibition by little substance. By EC50 is commonly meant the concentration needed to bring the measured effect to its halfway point. Lower therefore signals greater potency.

In data set [1] the target is T1, human VPAC1 (Homo sapiens, UniProt P32241).
T1 sequence (P32241 31-457): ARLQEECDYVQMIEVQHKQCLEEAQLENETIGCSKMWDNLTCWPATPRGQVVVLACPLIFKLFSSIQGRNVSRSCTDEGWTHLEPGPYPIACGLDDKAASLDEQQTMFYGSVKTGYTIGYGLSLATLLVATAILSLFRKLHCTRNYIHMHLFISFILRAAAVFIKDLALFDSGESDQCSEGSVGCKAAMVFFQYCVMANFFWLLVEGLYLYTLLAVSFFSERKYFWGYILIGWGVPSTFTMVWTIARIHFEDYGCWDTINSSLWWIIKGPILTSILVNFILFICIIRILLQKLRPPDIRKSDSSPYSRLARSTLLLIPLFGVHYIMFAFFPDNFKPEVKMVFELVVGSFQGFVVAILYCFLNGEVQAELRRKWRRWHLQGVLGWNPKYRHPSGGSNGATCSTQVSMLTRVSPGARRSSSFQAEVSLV
Kind of data set: Filter binding assay, human VPAC1 membranes, 125I-labeled VIP tracer. More on the design: expressed in transfected cells.

Data set [2] addresses T2, human VPAC2 (Homo sapiens, UniProt P41587).
T2 construct: expressed in transfected cells
T2 sequence (P41587 24-438): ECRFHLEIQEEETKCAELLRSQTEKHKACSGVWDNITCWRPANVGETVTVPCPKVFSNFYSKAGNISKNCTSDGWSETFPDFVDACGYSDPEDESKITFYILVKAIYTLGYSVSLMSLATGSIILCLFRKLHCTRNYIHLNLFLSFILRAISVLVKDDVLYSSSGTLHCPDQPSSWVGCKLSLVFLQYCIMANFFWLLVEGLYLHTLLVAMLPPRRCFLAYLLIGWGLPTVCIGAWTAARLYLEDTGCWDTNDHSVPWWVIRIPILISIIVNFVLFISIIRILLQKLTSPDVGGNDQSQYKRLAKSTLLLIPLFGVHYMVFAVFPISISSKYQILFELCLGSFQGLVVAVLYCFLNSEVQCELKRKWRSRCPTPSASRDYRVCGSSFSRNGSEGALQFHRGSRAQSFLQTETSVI
The data set can be described thus: DiscoveRx cAMP in vitro potency, human VPAC2. In kind it is cell-based. On the procedure:
(§1) Also, the cells are washed twice. The cells are incubated in assay buffer plus IBMX for 15 minutes at room temperature. […] The stimuli are present for 30 minutes. Then, the assay buffer is gently removed. […] At day 3, the assay described above for the VPAC2 receptor cell line is performed.

The target of data set [3] is T2, human VPAC2. The data set can be described thus: Alpha screen cAMP in vitro potency, human VPAC2. In kind it is cell-based.
In data set [4] the target is T3, human PAC1 (Homo sapiens, UniProt P41586). The data set can be described thus: biochemical. On the procedure:
For this assay, the solutions and equipment include:
Presoak solution: 0.5% Polyethyleneamine in Aqua dest.
Buffer for flushing filter plates: 25 mM […] pH 7.4
Blocking buffer: 25 mM HEPES pH 7.4; 0.2% protease free BSA
Assay buffer: 25 mM HEPES pH 7.4; 0.5% protease free BSA
Dilution and assay plate: PS-Microplate, U form
Filtration Plate Multiscreen FB Opaque Plate; […] Type B Glasfiber filter
In order to prepare the filter plates, aspirate the presoak solution by vacuum filtration. Flush the plates twice with 200 μL flush buffer. Add 200 μL blocking buffer to the filter plate. The filter plate is then incubated […] for 1 hour at room temperature.
Fill the assay plate with 25 μL assay buffer, 25 μL membranes (2.5 μg) suspended in assay buffer, 25 μL compound (agonist) in assay buffer, and 25 μL tracer (about 40000 cpm) in assay buffer. Incubate the filled plate for 1 hour with shaking.
Conduct the transfer from assay plate to filter plate. Aspirate the blocking buffer by vacuum filtration and wash two times with flush buffer. Transfer 90 μL from the assay plate to the filter plate. Aspirate the 90 μL transferred from assay plate and wash three times with 200 μL flush buffer. Remove the plastic support. Dry for 1 hour at 60° C. Add 30 μL Microscint. Perform the count.

For data set [5], the target named is T2, human VPAC2. The data set can be described thus: Filter binding assay, human VPAC2 membranes, 125I-labeled VIP tracer.
In data set [6] the target is T3, human PAC1. Kind of data set: cell-based. On the procedure:
as §1

The next data set relates to Normal Wistar rats. Kind of data set: Intravenous glucose tolerance test (IVGTT). Conditions: Wistar rat, insulin. In kind it is in vivo. The protocol: Intravenous glucose tolerance test (IVGTT): Normal Wistar rats are fasted overnight and are anesthetized prior to the experiment. A blood sampling catheter is inserted into the rats. The compound is given in the jugular vein. Blood samples are taken from the carotid artery. A blood sample is drawn immediately prior to the injection of glucose along with the compound. After the initial blood sample, glucose mixed with compound is injected intravenously (i.v.). A glucose challenge of 0.5 g/kg body weight is given, injecting a total of 1.5 mL vehicle with glucose and agonist per kg body weight. The peptide concentration vary to produce the desired dose in μg/kg. Blood samples are drawn at 2, 4, 6 and 10 minutes after giving glucose. The control group of animals receives the same vehicle along with glucose, but with no compound added. In some instances, a 30 minute post-glucose blood sample is drawn. Aprotinin is added to the blood sample (250 kIU/ml blood). The serum is then analyzed for glucose and insulin using standard methodologies.
The assay uses a formulated and calibrated peptide stock in PBS. Normally, this stock is a prediluted 100 μM stock. However, a more concentrated stock with approximately 1 mg agonist per mL is used. The specific concentration is always known. Variability in the maximal response is mostly due to variability in the vehicle dose.

The target of data set [7] is T1, human VPAC1. Kind of data set: DiscoveRx cAMP in vitro potency, human VPAC1. More on the design: expressed in transfected cells; host or cells: CHO-PO, transient transfection (Lipofectamine). The class given is cell-based. On the procedure:
as §1

The conditions of data set [8]: rat serum, 72 hours.
Protocol: The rat serum is stored at 4° C. until use and is used within two weeks.
On Day 0, prepare two 100 μL aliquots of 10 μM peptide in rat serum by adding 10 μL peptide stock to 90 μL rat serum for each aliquot. Add 250 kIU aprotinin/mL to one of these aliquots. Store the aliquot with aprotinin at 4° C. Store the aliquot without aprotinin at 37° C. Allow the aliquots to incubate for 18 hours.
On Day 1, after incubation of the aliquots prepared on day 0 for 18 hours, prepare an incubation buffer containing PBS+1.3 mM CaCl2, 1.2 mM MgCl2, 2 mM glucose, and 0.25 mM IBMX. Prepare a plate with 11 serial 5× dilutions of peptide for the 4° C. and 37° C. aliquot for each peptide studied. […] Wash the plate(s) with cells twice in incubation buffer. Allow the plates to hold 50 μL incubation media per well for 15 minutes. Transfer 50 μL solution per well to the cells from the plate prepared with 11 serial 3× dilutions of peptide for the 4° C. and 37° C. aliquot for each peptide studied, using the maximal concentrations that are indicated by the primary screen, in duplicate. This step dilutes the peptide concentration by a factor of two. Incubate in room temperature for 30 minutes. Remove the supernatant. Add 40 μL/well of the DiscoveRx antibody/extraction buffer. Incubate on the shaker (300 rpm) for 1 hour. Proceed as normal with the DiscoveRx kit. Include cAMP standards in column 12. […]
The target of data set [9] is T4, human PAC1 receptor (human, UniProt P41586).
Target sequence in this assay (P41586 21-468): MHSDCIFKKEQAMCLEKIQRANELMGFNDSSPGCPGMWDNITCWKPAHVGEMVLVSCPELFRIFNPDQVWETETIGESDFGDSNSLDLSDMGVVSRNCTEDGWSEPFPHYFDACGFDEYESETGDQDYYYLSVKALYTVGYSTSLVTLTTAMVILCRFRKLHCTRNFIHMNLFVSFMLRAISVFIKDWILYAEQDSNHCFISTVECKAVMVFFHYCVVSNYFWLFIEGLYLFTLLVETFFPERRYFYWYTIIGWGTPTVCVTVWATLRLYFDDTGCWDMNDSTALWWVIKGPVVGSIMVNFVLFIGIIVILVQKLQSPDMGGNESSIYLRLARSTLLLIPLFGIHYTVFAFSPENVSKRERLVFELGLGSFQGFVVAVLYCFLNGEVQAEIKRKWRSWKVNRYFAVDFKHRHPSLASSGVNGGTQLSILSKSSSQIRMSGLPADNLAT
Data set [10] addresses T5, human VPAC2 receptor (human) (UniProt P41587).
T5 sequence: T2 sequence (P41587 24-438)

The target in data set [11] is T6, human VPAC1 receptor (human) (UniProt P32241).
T6 sequence: T1 sequence (P32241 31-457)

The next data set concerns the target T7, rat VPAC1 receptor (rat, UniProt P30083).
T7 sequence: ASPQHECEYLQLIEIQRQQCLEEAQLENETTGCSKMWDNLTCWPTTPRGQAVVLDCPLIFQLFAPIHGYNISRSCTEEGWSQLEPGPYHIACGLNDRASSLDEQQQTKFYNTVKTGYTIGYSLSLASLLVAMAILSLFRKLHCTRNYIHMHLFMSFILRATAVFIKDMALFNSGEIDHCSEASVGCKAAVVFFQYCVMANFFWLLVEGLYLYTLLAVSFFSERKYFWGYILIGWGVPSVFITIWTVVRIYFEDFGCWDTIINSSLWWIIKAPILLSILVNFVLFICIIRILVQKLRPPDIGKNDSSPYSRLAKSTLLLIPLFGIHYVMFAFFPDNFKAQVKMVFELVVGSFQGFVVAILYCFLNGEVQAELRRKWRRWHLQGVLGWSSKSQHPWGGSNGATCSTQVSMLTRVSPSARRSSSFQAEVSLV
Kind of data set: cell-based or functional assay.

The target of data set [12] is T4, human PAC1 receptor. Kind of data set: cell-based or functional assay.
The next data set has as its target T8, rat VPAC2 receptor (rat, UniProt P35000).
T8 sequence: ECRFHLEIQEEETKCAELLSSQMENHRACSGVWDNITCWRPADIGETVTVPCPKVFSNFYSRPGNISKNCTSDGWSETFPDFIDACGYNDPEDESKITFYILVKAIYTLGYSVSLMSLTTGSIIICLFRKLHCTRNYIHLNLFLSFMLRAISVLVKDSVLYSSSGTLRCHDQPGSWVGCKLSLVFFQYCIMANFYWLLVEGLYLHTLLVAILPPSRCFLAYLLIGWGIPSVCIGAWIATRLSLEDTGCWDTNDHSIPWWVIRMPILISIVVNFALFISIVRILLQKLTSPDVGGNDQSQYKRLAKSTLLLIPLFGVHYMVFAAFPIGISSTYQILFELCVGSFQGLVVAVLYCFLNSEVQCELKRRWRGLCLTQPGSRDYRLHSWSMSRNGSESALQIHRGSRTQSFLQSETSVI
Kind of data set: cell-based or functional assay.

T3 sequence (P41586 21-468): as the sequence (P41586 21-468) above

`CCCCCC(=O)N[C@@H](Cc1c[nH]cn1)C(=O)N[C@@H](CO)C(=O)N[C@@H](CC(=O)O)C(=O)N[C@@H](C)C(=O)N[C@H](C(=O)N[C@@H](Cc1ccccc1)C(=O)N[C@H](C(=O)N[C@@H](CC(=O)O)C(=O)N[C@@H](CC(N)=O)C(=O)N[C@@H](Cc1ccc(O)cc1)C(=O)N[C@H](C(=O)N[C@@H](CCCNC(=N)N)C(=O)N[C@@H](CC(C)C)C(=O)N[C@@H](CCCNC(=N)N)C(=O)N[C@@H](CCCCN)C(=O)N[C@@H](CCC(N)=O)C(=O)N[C@H](C(=O)N[C@@H](C)C(=O)N[C@@H](C)C(=O)N[C@@H](CCCCN)C(=O)N[C@@H](CCCCN)C(=O)N[C@@H](Cc1ccc(O)cc1)C(=O)N[C@@H](CC(C)C)C(=O)N[C@@H](CCC(N)=O)C(=O)N[C@@H](CO)C(=O)N[C@H](C(=O)N[C@@H](CCCCN)C(=O)N[C@@H](CC(N)=O)C(=O)N[C@@H](CO)C(=O)N[C@@H](CCCNC(=N)N)C(=O)N[C@H](C(=O)N[C@@H](CO)C(=O)N1CCC[C@H]1C(=O)N1CCC[C@H]1C(=O)N1CCC[C@H]1C(N)=O)[C@@H](C)O)[C@@H](C)CC)C(C)C)[C@@H](C)O)[C@@H](C)O)C(C)C` [Agonist P30] (Hexanoyl-HSDAVFTDNYTRLRKQVAAKKYLQSIKNSRTSPPP-NH2): the half-maximal inhibitory concentration (IC50) was 33.8 nM at human VPAC1 [1], 214 nM on human PAC1 [4] and 0.22 nM at human VPAC2 [5]. Moreover, the EC50 on human VPAC2 [2] is 0.09 nM; at human VPAC2 [3], 0.08 nM; at human PAC1 [6], 27 nM; at human VPAC1 [7], 6.45 nM. Further, in the data set on Normal Wistar rats (dose 0.1 μg/kg), the “% increase AUC: Dose = 0.1 μg/kg” value is reported as 67%. In addition, the “% increase AUC: Dose = 0.5 μg/kg” value in the data set on Normal Wistar rats (dose 0.5 μg/kg) was 241%. The “% increase AUC: Dose = 10 μg/kg” value with Normal Wistar rats (dose 10 μg/kg) was 378%. The “Rat Serum Stability (Estimated purity in % after 72 hours)” value in data set [8] is given as 1.0%.
In the case of “HSDAVFTDNYTRLRKQVAAKKYLQSIKNSRTSPPP-NH2 [Agonist P5]”, the half-inhibitory concentration (IC50) at human VPAC1 [1] amounted to 56.7 nM; against human PAC1 [4] it was 234 nM; on human VPAC2 [5], 0.67 nM. The concentration for a half-maximal effect (EC50) at human VPAC2 [2] turned out to be 1.21 nM; at human VPAC2 [3], 1.5 nM; on human PAC1 [6] it was 30 nM; on human VPAC1 [7], 1.1 nM.

B1: P30 (peptide)
peptide: Hexanoyl-HSDAVFTDNYTRLRKQVAAKKYLQSIKNSRTSPPP-NH2
SMILES: CCCCCC(=O)N[C@@H](Cc1c[nH]cn1)C(=O)N[C@@H](CO)C(=O)N[C@@H](CC(=O)O)C(=O)N[C@@H](C)C(=O)N[C@H](C(=O)N[C@@H](Cc1ccccc1)C(=O)N[C@H](C(=O)N[C@@H](CC(=O)O)C(=O)N[C@@H](CC(N)=O)C(=O)N[C@@H](Cc1ccc(O)cc1)C(=O)N[C@H](C(=O)N[C@@H](CCCNC(=N)N)C(=O)N[C@@H](CC(C)C)C(=O)N[C@@H](CCCNC(=N)N)C(=O)N[C@@H](CCCCN)C(=O)N[C@@H](CCC(N)=O)C(=O)N[C@H](C(=O)N[C@@H](C)C(=O)N[C@@H](C)C(=O)N[C@@H](CCCCN)C(=O)N[C@@H](CCCCN)C(=O)N[C@@H](Cc1ccc(O)cc1)C(=O)N[C@@H](CC(C)C)C(=O)N[C@@H](CCC(N)=O)C(=O)N[C@@H](CO)C(=O)N[C@H](C(=O)N[C@@H](CCCCN)C(=O)N[C@@H](CC(N)=O)C(=O)N[C@@H](CO)C(=O)N[C@@H](CCCNC(=N)N)C(=O)N[C@H](C(=O)N[C@@H](CO)C(=O)N1CCC[C@H]1C(=O)N1CCC[C@H]1C(=O)N1CCC[C@H]1C(N)=O)[C@@H](C)O)[C@@H](C)CC)C(C)C)[C@@H](C)O)[C@@H](C)O)C(C)C
For B1, the results for the EC50 (nM) for cAMP generation, DiscoveRx (with human PAC1 receptor [9]; in [10]; in data set [11]) were 27 nM, 0.09 nM and 6.45 nM, respectively. Further, the EC50 (nM) for cAMP generation, Alpha Screen in data set [10] came out at 0.08 nM. In the data set with rat VPAC1 receptor, the “EC50 for cAMP generation, DiscoveRx” value amounted to 0.62 nM.

B2: P32 (peptide)
peptide: Ac-HSDAVFTDNYTRLRKQVAAKKYLQSIKNSRTSPPP-NH2
Turning to B2, the “EC50 (nM) for cAMP generation, DiscoveRx” value in the data set with human PAC1 receptor [12] was 125 nM; in data set [10] it was 0.65 nM; in data set [11], 8.24 nM. Besides, the EC50 (nM) for cAMP generation, Alpha Screen in [10] came out at 0.32 nM. Moreover, the “EC50 for cAMP generation, DiscoveRx” value in the data set with rat VPAC1 receptor is 0.73 nM.

B3: P5 (peptide)
peptide: HSDAVFTDNYTRLRKQVAAKKYLQSIKNSRTSPPP-NH2
As for B3, the figures for the EC50 (nM) for cAMP generation, DiscoveRx (with human PAC1 receptor [9]; in [10]; in data set [11]) were 30 nM, 1.21 nM and 1.1 nM, respectively. In data set [10], this molecule returned an EC50 (nM) for cAMP generation, Alpha Screen of 1.5 nM. Besides, the “EC50 for cAMP generation, DiscoveRx” value with rat VPAC1 receptor came out at 0.96 nM; with rat VPAC2 receptor, 2.23 nM.
